We go through four compounds from ChEMBL document CHEMBL1201862, “PubChem BioAssay data set” (2004).

SMILES strings stand for the structures.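 Protocol summary: plate cells (96-well), add compound at 5 concentrations, incubate 48 h, interpolate endpoints linearly. Abbreviation: GI50, concentration required for 50% inhibition of growth.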 Active and inactive are the calls of the source. Rule as the data show it: active = GI50 up to about 1.1 µM and inactive = higher. Bounds are passed on as bounds.

Test systems include SNB-19; CCRF-CEM; CAKI-1; U-251; M14; SF-539; OVCAR-4; A498; SN12C; SF-268; Malme-3M; HT-29; SF-295; NCI-H522; NCI-H460; SK-OV-3; K562; ACHN; SW-620; OVCAR-5.
Holding throughout (assay): growth of human tumour cells (NCI), 48 h

In the case of `O=C1c2ccccc2C(=O)N1[C@@H](Cc1ccccc1)C(=O)n1cccc1CO`, the GI50 in the assay with SNB-19, in the assay with CCRF-CEM, in the assay with CAKI-1, in the assay with U-251, in the assay on M14 and with SF-539 was > 100 µM (inactive) in each case. Also, the GI50 in the assay with OVCAR-4, with A498, in the assay with SN12C, in the assay on SF-268, with Malme-3M and with HT-29 was > 100 µM (inactive) in each case. For the same compound, the GI50 with SF-295, in the assay with NCI-H522, in the assay with NCI-H460, in the assay with SK-OV-3, with K562 and in the assay with ACHN was > 100 µM (inactive) in each case. In addition, the GI50 with SW-620 and in the assay on OVCAR-5 was > 100 µM (inactive) in each case.

Take `O=S1(=O)CS(=O)(=O)OCCCO1`: the GI50 in the assay with SNB-19 is > 100 µM (inactive); in the assay with CCRF-CEM, 63.8 µM (inactive); with CAKI-1, 24.3 µM (inactive); in the assay with U-251, > 100 µM (inactive); in the assay on M14, > 100 µM (inactive); with SF-539, 54.1 µM (inactive). In addition, the GI50 in the assay on OVCAR-4, in the assay on A498, in the assay on SN12C, in the assay with SF-268, in the assay with Malme-3M and in the assay with HT-29 was > 100 µM (inactive) throughout. Besides, the GI50 in the assay on SF-295 is 54.1 µM (inactive); in the assay on NCI-H522 it was > 100 µM (inactive); with NCI-H460, 27.3 µM (inactive); with SK-OV-3, > 100 µM (inactive); in the assay with K562 it was > 100 µM (inactive); with ACHN, 52.1 µM (inactive). Moreover, the GI50 with SW-620 and with OVCAR-5 was > 100 µM (inactive) each time.

Take `COc1cc(Nc2c3ccccc3nc3ccccc23)ccc1NS(C)(=O)=O`: the GI50 was 5.73 µM (inactive) in the assay with SNB-19; 28.8 µM (inactive) in the assay on CCRF-CEM; 3.02 µM (inactive) in the assay on CAKI-1; 4.59 µM (inactive) in the assay with U-251; 3.14 µM (inactive) in the assay with M14; 4.41 µM (inactive) in the assay with SF-539. The GI50 with OVCAR-4 is 3.61 µM (inactive); in the assay with A498, 6.31 µM (inactive); with SN12C, 2.58 µM (inactive); in the assay with SF-268 it was 4.39 µM (inactive); in the assay with Malme-3M, 7.66 µM (inactive); in the assay with HT-29 it was 3.34 µM (inactive). Besides, the GI50 with SF-295 was 3.84 µM (inactive); in the assay with NCI-H522, 3.42 µM (inactive); in the assay with NCI-H460, 2.64 µM (inactive); in the assay with SK-OV-3, 14.7 µM (inactive); in the assay on K562, 34.4 µM (inactive); with ACHN, 4.11 µM (inactive). Further, the GI50 in the assay with SW-620 was 2.61 µM (inactive); in the assay with OVCAR-5 it was 11 µM (inactive).

For `CC(C)(C)c1cc(C(=O)/C=C/c2ccc(O)c(O)c2O)cc(C(C)(C)C)c1O`, the GI50 was 2.56 µM (inactive) in the assay on SNB-19; 1.73 µM (inactive) in the assay with CCRF-CEM; 3.21 µM (inactive) with CAKI-1; 2.79 µM (inactive) with U-251; 5.46 µM (inactive) with M14; 2.92 µM (inactive) in the assay on SF-539. Moreover, the GI50 in the assay on OVCAR-4 is 2.77 µM (inactive); with A498 it was 14 µM (inactive); in the assay on SN12C, 2.8 µM (inactive); with SF-268, 5.3 µM (inactive); with Malme-3M, 11.5 µM (inactive); with HT-29, 11.7 µM (inactive). Further, the GI50 in the assay with SF-295 was 5.41 µM (inactive); with NCI-H522 it was 1.08 µM (active); in the assay on NCI-H460, 1.78 µM (inactive); with SK-OV-3, 3.87 µM (inactive); with K562, 2.81 µM (inactive); in the assay on ACHN it was 5.69 µM (inactive). Moreover, the GI50 in the assay on SW-620 was 2.58 µM (inactive); in the assay on OVCAR-5 it was 17.5 µM (inactive).
